Laboratory results from PMC10726355, “Small Molecule Ligands of the BET-like Bromodomain, SmBRD3, Affect Schistosoma mansoni Survival, Oviposition, and Development” (Journal of Medicinal Chemistry, 2023).
Like-named read-outs stand apart in the source and are kept apart here.

Columns and labels:
[1] = molecular target: SmBRD3(2) (Schistosoma mansoni, UniProt A0A5K4ESD7); experiment: biochemical; type: binding; details: for N number, binding to SmBRD3(2), Mean: mean of repeats
[2] = tested on: S. mansoni adult worms; experiment: Ex vivo adult worm screening (motility, IVLEs, pairing); parameters: species or system Schistosoma mansoni; details: 20 μM in 0.2% DMSO; 72 h
Description: S. mansoni adult worms were recovered by hepatic portal vein perfusion from TO mice (Mus musculus HsdOLa:TO - Tuck Ordinary; Envigo, UK) that were percutaneously infected 7 weeks earlier with 180 cercariae.[65],[71] Following perfusion, schistosomes were washed and processed as previously described.[65],[66] Subsequently, schistosome pairs were seeded into 48 well tissue culture plates (1 worm pair/well, in duplicate) and dosed with the compounds (20 μM in 0.2% DMSO). DMSO (0.2%) and praziquantel (10 μM in 0.1% DMSO) were also included as negative and positive controls, respectively. Parasite motility was assessed by a digital image processing-based system (WormassayGP2),[66] modified after Wormassay.[72]In vitro laid eggs (IVLEs) were enumerated and the presence or absence of paired worms was noted.

[3] = tested on: S. mansoni schistosomula; experiment: Ex vivo schistosomula screening (Roboworm high content imaging); parameters: species or system Schistosoma mansoni; details: 72 h; for EC50: Schistosoma mansoni, ethyl esters (R=Et), 95% CI in brackets
Description: A high-throughput imaging platform that quantifies both phenotype and motility ex vivo, was used to screen compounds against schistosomula; their effects were assessed as previously described.[20] Briefly, the schistosomula stage of S. mansoni was obtained by mechanical transformation of cercariae, dispensed into 384-well tissue culture plates, and dosed with 20 μM (Figure 7) or 10 μM (Figure S48) of each compound. Following 72 h coincubation of the schistosomula and compound, the plate was subjected to high content imaging to quantify the effects of each compound.
S. mansoni schistosomula were obtained by mechanical transformation from cercariae as previously described,[64] distributed in 384-well tissue culture plates (PerkinElmer, catalogue number 6007460) at 120 parasites/well and dosed with the selected compounds as previously reported.[65]−[68] For this study, each compound (as 10 mM DMSO stock solution) was initially tested at two concentration points (20 and 10 μM final concentration, in duplicates) in at least four independent screens (Z′ scores above 0.35).[69] Each screen contained both positive (10 μM auranofin (AUR) in 0.625% DMSO) and negative (0.625% DMSO) controls. […] Following 72 h schistosomula/compound coincubation, the plate was analyzed by the Roboworm platform.[70] EC50 values were calculated from the titrated concentrations by nonlinear regression, after log transformation of concentrations and data normalization using GraphPad Prism 7.02.

[4] = molecular target: SmBRD3(1,2) (Schistosoma mansoni, UniProt A0A5K4ESD7); experiment: biochemical; type: binding; details: for N number, binding to SmBRD3(1,2): ITC stoichiometry, n=1 ± error of curve fit; for Kd: ITC
Sequence of SmBRD3(1,2) (A0A5K4ESD7 entry or part of it): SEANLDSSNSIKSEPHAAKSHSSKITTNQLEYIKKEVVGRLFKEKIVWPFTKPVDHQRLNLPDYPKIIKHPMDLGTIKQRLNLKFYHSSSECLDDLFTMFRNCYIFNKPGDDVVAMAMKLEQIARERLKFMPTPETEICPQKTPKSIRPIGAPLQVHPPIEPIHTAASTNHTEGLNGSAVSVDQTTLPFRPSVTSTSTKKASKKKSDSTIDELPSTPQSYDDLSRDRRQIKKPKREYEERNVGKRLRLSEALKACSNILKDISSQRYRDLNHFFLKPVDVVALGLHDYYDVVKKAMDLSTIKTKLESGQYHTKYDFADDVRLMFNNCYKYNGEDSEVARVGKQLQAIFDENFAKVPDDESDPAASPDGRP

[5] = tested on: S. mansoni miracidia; experiment: Ex vivo miracidia to sporocyst transformation screening; parameters: species or system Schistosoma mansoni; details: 0.5-25 μM in 1% DMSO; 48 h; 26 °C
Description: S. mansoni miracidia were obtained by hatching of schistosome eggs as previously described.[73] The resulting miracidial suspension was collected, washed with Chernin’s balanced salt solution (CBSS),[73] and enumerated prior to being used for ex vivo miracidia to sporocyst screens as previously reported.[66],[73] Each compound was tested at 0.5, 2.0, 5.0, 10, and 25 μM final concentrations (in 1% DMSO). Each treatment was set up in duplicate (15–25 miracidia/well). Each titration was performed in three independent experiments (two technical replicates per data point). Parasites cultured in CBSS (containing 1% DMSO) were included as negative controls. After 48 h incubation at 26 °C in the dark, dead, fully transformed and partially transformed miracidia were enumerated as previously described.[74],[75]

[6] = 20 μM (Figure 7) or 10 μM (Figure S48)
[7] = read-out: Schistosomla Movement EC50
[8] = read-out: Schistosomla Phenotype EC50
[9] = ITC, single run ± error of curve fit, Repeat 1
[10] = ITC, single value ± error of the curve fit or mean of 2-3 repeats ± s.e.m.
[11] = SmBRD3(1,2) Kd, n = 1 ± error of the curve fit
[12] = ITC, read-out: SmBRD3(2) pKd (converted)
[13] = ITC, single run ± error of curve fit, Repeat 2, read-out: SmBRD3(2) Kd, Repeat 2
[14] = read-out: SmBRD3(2) Kd, Repeat 1

Sequence of SmBRD3(2) (A0A5K4ESD7 entry or part of it): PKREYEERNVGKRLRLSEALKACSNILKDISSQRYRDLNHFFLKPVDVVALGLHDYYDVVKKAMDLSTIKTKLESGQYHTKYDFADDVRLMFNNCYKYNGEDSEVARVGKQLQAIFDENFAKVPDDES

## CCOC(=O)c1ccc(-c2ccc3c(c2)[C@H](Nc2ccc4ccoc4c2)C[C@H](C)N3C(C)=O)cc1 [Compound 18, Ethyl 4-{(2S,4R)-1-Acetyl-4-[(1-benzofuran-6-yl)amino]-2-methyl-1,2,3,4-tetrahydroquinolin-6-yl}benzoate]
[1]
  SmBRD3(2) Kd: No binding
  SmBRD3(2) Kd, Repeat 1: No binding
[2]
  Effect on adult worm movement: substantial effects
[3]
  Antischistosomula activity at 10 μM: active
[3]; [6]
  Effect on schistosomula motility: substantial effects
[3]; [7]
  EC50: 3.92 µM
[3]; [8]
  EC50: 2.43 µM

## Cc1noc(C)c1-c1cc(O)cc(C(O)c2ccc(F)cc2)c1 (stereo not shown) [Compound 3, OXFBD02-F, reference compound]
[1]; [9]
  SmBRD3(2) Kd, Repeat 1: No binding
[1]; [10]
  SmBRD3(2) Kd: No detectable binding
[4]
  N number, binding to SmBRD3(1,2): 1.05 ± 3.9e-2
[4]; [11]
  Kd: 1.75 ± 0.301 µM
[4]; SmBRD3(1,2) pKd
  Kd: 1.58 µM

## CCOC(=O)c1ccc(-c2ccc3c(c2)[C@H](Nc2ccc4ncsc4c2)C[C@H](C)N3C(C)=O)cc1 [Compound 21, Ethyl 4-{(2S,4R)1-Acetyl-4-[(1,3-benzothiazol-6-yl)amino]-2-methyl-1,2,3,4-tetrahydroquinolin-6-yl}benzoate]
[1]
  SmBRD3(2) Kd: No binding
  SmBRD3(2) Kd, Repeat 1: No binding
[2]
  Effect on adult worm movement: substantial effects
[3]
  Antischistosomula activity at 10 μM: active
[3]; [6]
  Effect on schistosomula motility: greatest effects
  Effect on schistosomula phenotype: greatest effects
[3]; [7]
  EC50: 2.85 µM
[3]; [8]
  EC50: 2.14 µM

## CC(=O)N1c2ccc(-c3ccc(C(=O)O)cc3)cc2[C@H](Nc2ccc3[nH]ccc3c2)C[C@@H]1C [Compound 13, 4-{(2S,4R)-1-Acetyl-4-[(1H-indol-5-yl)amino]-2-methyl-1,2,3,4-tetrahydroquinolin-6-yl}benzoic Acid]
[1]; ITC stoichiometry, Repeat 1
  N number, binding to SmBRD3(2), Repeat 1: 1.52 ± 2.0e-2
[1]; ITC stoichiometry, Repeat 2
  N number, binding to SmBRD3(2), Repeat 2: 1.71 ± 1.8e-2
[1]; ITC stoichiometry, Repeat 3
  N number, binding to SmBRD3(2), Repeat 3: 1.60 ± 1.6e-2
[1]; ITC stoichiometry
  N number, binding to SmBRD3(2), Mean: 1.61
[1]; [12]
  Kd: 0.631 µM
[1]; [13]
  Kd: 0.652 ± 0.0785 µM
[1]; ITC, single run ± error of curve fit, Repeat 3, read-out: SmBRD3(2) Kd, Repeat 3
  Kd: 0.672 ± 0.076 µM
[1]; read-out: SmBRD3(2) Kd
  Kd: 0.651 ± 0.0127 µM
[1]; [14]
  Kd: 0.628 ± 0.0949 µM

## CCOC(=O)c1ccc(-c2ccc3c(c2)[C@H](Nc2ccc4sccc4c2)C[C@H](C)N3C(C)=O)cc1 [Compound 19]
[1]
  SmBRD3(2) Kd: No binding
  SmBRD3(2) Kd, Repeat 1: No binding

## CCOC(=O)c1ccc(-c2ccc3c(c2)[C@H](Nc2ccc4[nH]ccc4c2)C[C@H](C)N3C(C)=O)cc1 [Compound 20, Ethyl 4-{(2S,4R)-1-Acetyl-4-[(1H-indol-5-yl)amino]-2-methyl-1,2,3,4-tetrahydroquinolin-6-yl}benzoate]
[1]
  SmBRD3(2) Kd: No binding
  SmBRD3(2) Kd, Repeat 1: No binding
[2]
  Effect on adult worm movement: substantial effects
[3]
  Antischistosomula activity at 10 μM: active
[3]; [7]
  EC50: 1.81 µM
[3]; [8]
  EC50: 2.97 µM

## CC(=O)N1c2ccc(-c3ccc(C(=O)O)cc3)cc2[C@H](Nc2ccc3sccc3c2)C[C@@H]1C [Compound 12, 4-((2S,4R)-1-Acetyl-4-[(1-benzothiophen-5-yl)amino]-2-methyl-1,2,3,4-tetrahydroquinolin-6-yl)benzoic Acid]
[1]; ITC stoichiometry, Repeat 1
  N number, binding to SmBRD3(2), Repeat 1: 1.51 ± 1.8e-2
[1]; ITC stoichiometry, Repeat 2
  N number, binding to SmBRD3(2), Repeat 2: 1.55 ± 1.4e-2
[1]; ITC stoichiometry
  N number, binding to SmBRD3(2), Mean: 1.53
[1]; [12]
  Kd: 0.501 µM
[1]; [13]
  Kd: 0.543 ± 0.0603 µM
[1]; read-out: SmBRD3(2) Kd
  Kd: 0.553 ± 0.0095 µM
[1]; [14]
  Kd: 0.562 ± 0.0791 µM

## Cc1noc(C)c1-c1cc(O)cc(C(O)c2cccnc2)c1 (stereo not shown) [OXFBD04 (4), OXFBD04, reference compound]
[1]; [9]
  SmBRD3(2) Kd, Repeat 1: No binding
[1]; [10]
  SmBRD3(2) Kd: No detectable binding
[5]
  Effect on miracidia to sporocyst transformation: modest effects
[4]
  N number, binding to SmBRD3(1,2): 1.39 ± 2.0e-2
[4]; [11]
  Kd: 2.95 ± 0.261 µM
[4]; SmBRD3(1,2) pKd
  Kd: 3.16 µM

## CC(=O)N1c2ccc(-c3ccc(C(=O)O)cc3)cc2[C@H](Nc2ccc3ccoc3c2)C[C@@H]1C [Compound 11, 4-((2S,4R)-1-Acetyl-4-[(1-benzofuran-6-yl)amino]-2-methyl-1,2,3,4-tetrahydroquinolin-6-yl)benzoic Acid]
[1]; ITC stoichiometry, Repeat 1
  N number, binding to SmBRD3(2), Repeat 1: 1.54 ± 2.5e-2
[1]; ITC stoichiometry, Repeat 2
  N number, binding to SmBRD3(2), Repeat 2: 1.49 ± 3.0e-2
[1]; ITC stoichiometry
  N number, binding to SmBRD3(2), Mean: 1.52
[1]; [12]
  Kd: 1.26 µM
[1]; [13]
  Kd: 1.3 ± 0.236 µM
[1]; read-out: SmBRD3(2) Kd
  Kd: 1.18 ± 0.12 µM
[1]; [14]
  Kd: 1.06 ± 0.164 µM

## CCOC(=O)c1ccc(-c2ccc3c(c2)[C@H](Nc2ccc4ccsc4c2)C[C@H](C)N3C(C)=O)cc1 [Compound 16, Ethyl 4-{(2S,4R)-1-Acetyl-4-[(1-benzothiophen-6-yl)amino]-2-methyl-1,2,3,4-tetrahydroquinolin-6-yl}benzoate]
[1]
  SmBRD3(2) Kd: No binding
  SmBRD3(2) Kd, Repeat 1: No binding
[5]
  Effect on miracidia to sporocyst transformation: concentration-dependent inhibition
[2]
  Effect on adult worm movement: substantial effects
